For the assay, the system named is Pseudomonas aeruginosa. Put plainly: Antibacterial activity against Pseudomonas aeruginosa ATCC 27853 assessed as inhibition of bacterial growth incubated 24 hrs by cation adjusted Mueller-Hinton broth based method. It counts as functional.

In brackets after ≈: the same amount, converted by molar mass.

On to `CO[C@H]1/C=C/O[C@@]2(C)Oc3c(C)c(O)c4c(O)c(c(/C=N/N5CCN(C)CC5)c(O)c4c3C2=O)NC(=O)/C(C)=C\C=C\[C@H](C)[C@H](O)[C@@H](C)[C@@H](O)[C@@H](C)[C@H](OC(C)=O)[C@@H]1C` [RIFAMPIN], for which the MIC turned out to be 32 µg/mL (≈ 38.9 µM).

In general, MIC refers to the lowest concentration found to suppress growth.

These data come from ChEMBL document CHEMBL6078630, “Design, synthesis, and bioactivity investigation of novel cyclic lipopeptide antibiotics targeting top-priority multidrug-resistant gram-negative bacteria” (Eur J Med Chem, 2024).
